Data as given in ChEMBL document CHEMBL4823315 (Bioorg Med Chem Lett, 2021).
Values after ≈ are worked out from the molar mass of the structure shown.

Assays:
Cytochrome P450 3A4 = Cytochrome P450 3A4 (Homo sapiens, UniProt P08684); test: Inhibition of CYP3A4 (unknown origin); assay type: ADME
Cytochrome P450 1A2 = target: T1, Cytochrome P450 1A2 (Homo sapiens, UniProt P05177); test: Inhibition of CYP1A2 (unknown origin); assay type: ADME
T1 sequence (P05177 whole entry): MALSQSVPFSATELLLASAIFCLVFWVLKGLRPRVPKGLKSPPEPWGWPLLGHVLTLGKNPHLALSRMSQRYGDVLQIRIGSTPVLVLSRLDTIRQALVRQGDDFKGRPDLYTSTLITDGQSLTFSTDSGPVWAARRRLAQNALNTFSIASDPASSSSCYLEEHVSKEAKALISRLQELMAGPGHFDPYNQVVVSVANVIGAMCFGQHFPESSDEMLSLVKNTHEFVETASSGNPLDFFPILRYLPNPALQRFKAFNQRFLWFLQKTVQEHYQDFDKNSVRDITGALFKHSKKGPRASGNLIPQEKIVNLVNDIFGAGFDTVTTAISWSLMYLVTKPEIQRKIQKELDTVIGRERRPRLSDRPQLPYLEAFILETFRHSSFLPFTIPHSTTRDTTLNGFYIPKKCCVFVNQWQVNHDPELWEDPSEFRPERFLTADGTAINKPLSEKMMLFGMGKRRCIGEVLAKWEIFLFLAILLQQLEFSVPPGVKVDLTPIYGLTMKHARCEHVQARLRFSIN

[1] = AUC in Sprague-Dawley rat at 5 mg/kg, po; assay type: ADME, organism-based; design: dose 5 mg/kg; conditions: in vivo
[2] = target: Voltage-gated inwardly rectifying potassium channel KCNH2 (Homo sapiens, UniProt Q12809); test: Inhibition of human ERG by patch clamp assay
[3] = Protein binding in mouse plasma assessed as unbound fraction; assay type: ADME, cell-free
Cytochrome P450 2B6 = target: T2, Cytochrome P450 2B6 (Homo sapiens, UniProt P20813); test: Inhibition of CYP2B6 (unknown origin); assay type: ADME
T2 sequence (P20813 whole entry): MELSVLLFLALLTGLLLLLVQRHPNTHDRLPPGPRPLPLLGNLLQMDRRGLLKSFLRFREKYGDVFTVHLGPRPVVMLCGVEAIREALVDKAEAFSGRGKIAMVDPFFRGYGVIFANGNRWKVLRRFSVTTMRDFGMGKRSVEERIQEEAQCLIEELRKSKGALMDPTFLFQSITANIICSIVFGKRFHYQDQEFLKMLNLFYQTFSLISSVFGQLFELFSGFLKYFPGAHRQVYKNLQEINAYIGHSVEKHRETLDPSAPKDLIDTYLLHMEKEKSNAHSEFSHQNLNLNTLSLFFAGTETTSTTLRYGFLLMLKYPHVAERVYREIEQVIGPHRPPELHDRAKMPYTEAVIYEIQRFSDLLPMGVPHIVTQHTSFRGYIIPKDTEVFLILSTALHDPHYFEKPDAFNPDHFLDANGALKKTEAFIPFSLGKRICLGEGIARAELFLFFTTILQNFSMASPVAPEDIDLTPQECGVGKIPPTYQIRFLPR

Cytochrome P450 2C8 = target: T3, Cytochrome P450 2C8 (Homo sapiens, UniProt P10632); test: Inhibition of CYP2C8 (unknown origin); assay type: ADME
T3 sequence (P10632 whole entry): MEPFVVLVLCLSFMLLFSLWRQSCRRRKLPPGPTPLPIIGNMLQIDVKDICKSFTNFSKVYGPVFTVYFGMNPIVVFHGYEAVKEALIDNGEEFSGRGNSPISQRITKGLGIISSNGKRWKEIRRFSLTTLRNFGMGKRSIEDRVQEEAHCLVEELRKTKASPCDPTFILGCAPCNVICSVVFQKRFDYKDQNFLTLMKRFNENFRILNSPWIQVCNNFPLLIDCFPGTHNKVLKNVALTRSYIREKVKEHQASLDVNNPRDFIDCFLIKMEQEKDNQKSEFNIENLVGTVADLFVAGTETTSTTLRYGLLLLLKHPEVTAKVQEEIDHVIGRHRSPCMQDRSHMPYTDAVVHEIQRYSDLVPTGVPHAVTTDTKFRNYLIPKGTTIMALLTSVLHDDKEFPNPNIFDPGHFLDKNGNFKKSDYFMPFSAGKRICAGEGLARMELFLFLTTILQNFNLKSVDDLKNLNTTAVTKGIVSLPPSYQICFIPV

Cytochrome P450 2C19 = Cytochrome P450 2C19 (Homo sapiens, UniProt P33261); test: Inhibition of CYP2C19 (unknown origin); assay type: ADME
Cytochrome P450 2D6 = Cytochrome P450 2D6 (Homo sapiens, UniProt P10635); test: Inhibition of CYP2D6 (unknown origin); assay type: ADME
[4] = Efflux ratio of apparent permeability in human Caco-2 cells; assay type: ADME, cell-based
[5] = Thermodynamic solubility of the compound at pH 1.2; assay type: physicochemical; conditions: buffer, read-out: Therm_solubility
[6] = AUC in CD-1 mouse at 5 mg/kg, po; assay type: ADME, organism-based; design: dose 5 mg/kg; conditions: in vivo
[7] = AUC in CD-1 mouse at 5 mg/kg, iv; assay type: ADME, organism-based; design: dose 5 mg/kg; conditions: in vivo
[8] = Cmax in CD-1 mouse at 5 mg/kg, po; assay type: ADME, organism-based; design: route oral, dose 5 mg/kg; conditions: in vivo
[9] = Cmax in CD-1 mouse at 5 mg/kg, iv; assay type: ADME, organism-based; design: route intravenous, dose 5 mg/kg; conditions: in vivo
[10] = Half life in CD-1 mouse at 5 mg/kg, po or 5 mg/kg, iv; assay type: ADME, organism-based; conditions: in vivo
[11] = Clearance in CD-1 mouse at 5 mg/kg, po or 5 mg/kg, iv; assay type: ADME, organism-based; conditions: in vivo
[12] = Volume of distribution in CD-1 mouse at 5 mg/kg, po or 5 […], iv; assay type: ADME, organism-based; conditions: in vivo
[13] = Oral bioavailability in CD-1 mouse at 5 mg/kg; assay type: ADME, organism-based; conditions: in vivo
[14] = Clearance in cynomolgus monkey at 0.5 mg/kg, po or 0.2 mg/kg, iv; assay type: ADME, organism-based, Macaca fascicularis; conditions: in vivo
[15] = Half life in cynomolgus monkey at 0.5 mg/kg, po or 0.2 mg/kg, iv; assay type: ADME, organism-based, Macaca fascicularis; conditions: in vivo
[16] = Oral bioavailability in Beagle dog at 0.5 mg/kg; assay type: ADME, organism-based, Canis lupus familiaris; conditions: in vivo
[17] = AUC in Beagle dog at 0.5 mg/kg, po; assay type: ADME, organism-based, Canis lupus familiaris; design: dose 0.5 mg/kg; conditions: in vivo
[18] = AUC in cynomolgus monkey at 0.5 mg/kg, po; assay type: ADME, organism-based, Macaca fascicularis; design: dose 0.5 mg/kg; conditions: in vivo
[19] = Cmax in Beagle dog at 0.5 mg/kg, po; assay type: ADME, organism-based, Canis lupus familiaris; design: route oral, dose 0.5 mg/kg; conditions: in vivo
MDA-MB-436 = test: Antitumor activity against human MDA-MB-436 cells xenografted in mouse assessed as tumor growth inhibition at 200 mg/kg, po qd and measured for 28 days; assay type: functional; conditions: MDA-MB-436, po, 672 h, time 28 day, read-out: TGI
[20] = In vivo Inhibition of Akt/p70S6K in mouse xenografted with human MDA-MB-436 cells assessed as reduction in S6 phosphorylation in tumor at 25 to 200 mg/kg, po measured after 4 to 8 hrs; assay type: functional; conditions: dose 25-200 mg/kg, time 4-8 hrs
[21] = In vivo Inhibition of Akt/p70S6K in mouse xenografted with human MDA-MB-436 cells assessed as reduction in S6 phosphorylation in tumor at 75 mg/kg, po measured after 24 hrs; assay type: functional; conditions: MDA-MB-436, po
[22] = Toxicity in po dosed mouse xenografted with human MDA-MB-436 cells administered daily; assay type: organism-based; conditions: in vivo

Chain of Cytochrome P450 2D6 (P10635 whole entry): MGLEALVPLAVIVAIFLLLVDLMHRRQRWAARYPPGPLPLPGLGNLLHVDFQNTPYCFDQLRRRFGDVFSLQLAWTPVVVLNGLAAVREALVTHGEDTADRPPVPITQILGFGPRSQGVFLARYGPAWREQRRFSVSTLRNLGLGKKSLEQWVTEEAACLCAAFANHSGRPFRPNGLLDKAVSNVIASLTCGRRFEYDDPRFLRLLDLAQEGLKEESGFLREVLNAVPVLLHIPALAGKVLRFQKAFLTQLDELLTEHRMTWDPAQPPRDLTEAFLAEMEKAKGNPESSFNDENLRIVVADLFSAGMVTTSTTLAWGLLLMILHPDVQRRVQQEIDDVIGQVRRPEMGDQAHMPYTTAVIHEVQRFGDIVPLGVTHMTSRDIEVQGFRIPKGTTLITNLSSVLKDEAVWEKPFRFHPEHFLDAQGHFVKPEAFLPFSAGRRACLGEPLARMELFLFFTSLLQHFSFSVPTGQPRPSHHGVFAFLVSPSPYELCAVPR
Chain of Cytochrome P450 3A4 (P08684 whole entry): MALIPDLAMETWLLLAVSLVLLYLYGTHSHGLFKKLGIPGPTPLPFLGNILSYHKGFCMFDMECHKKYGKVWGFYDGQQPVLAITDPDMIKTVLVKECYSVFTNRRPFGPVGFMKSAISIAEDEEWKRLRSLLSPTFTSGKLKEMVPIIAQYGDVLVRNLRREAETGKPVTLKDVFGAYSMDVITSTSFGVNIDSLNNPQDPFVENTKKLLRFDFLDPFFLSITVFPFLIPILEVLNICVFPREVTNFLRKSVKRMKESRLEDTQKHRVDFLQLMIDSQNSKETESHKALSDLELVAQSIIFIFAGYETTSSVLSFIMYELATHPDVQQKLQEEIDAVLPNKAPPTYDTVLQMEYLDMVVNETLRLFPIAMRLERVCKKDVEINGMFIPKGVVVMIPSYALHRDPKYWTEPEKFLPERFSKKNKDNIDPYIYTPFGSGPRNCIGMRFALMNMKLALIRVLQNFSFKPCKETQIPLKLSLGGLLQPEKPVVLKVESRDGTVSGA
Chain of Voltage-gated inwardly rectifying potassium channel KCNH2 (Q12809 whole entry): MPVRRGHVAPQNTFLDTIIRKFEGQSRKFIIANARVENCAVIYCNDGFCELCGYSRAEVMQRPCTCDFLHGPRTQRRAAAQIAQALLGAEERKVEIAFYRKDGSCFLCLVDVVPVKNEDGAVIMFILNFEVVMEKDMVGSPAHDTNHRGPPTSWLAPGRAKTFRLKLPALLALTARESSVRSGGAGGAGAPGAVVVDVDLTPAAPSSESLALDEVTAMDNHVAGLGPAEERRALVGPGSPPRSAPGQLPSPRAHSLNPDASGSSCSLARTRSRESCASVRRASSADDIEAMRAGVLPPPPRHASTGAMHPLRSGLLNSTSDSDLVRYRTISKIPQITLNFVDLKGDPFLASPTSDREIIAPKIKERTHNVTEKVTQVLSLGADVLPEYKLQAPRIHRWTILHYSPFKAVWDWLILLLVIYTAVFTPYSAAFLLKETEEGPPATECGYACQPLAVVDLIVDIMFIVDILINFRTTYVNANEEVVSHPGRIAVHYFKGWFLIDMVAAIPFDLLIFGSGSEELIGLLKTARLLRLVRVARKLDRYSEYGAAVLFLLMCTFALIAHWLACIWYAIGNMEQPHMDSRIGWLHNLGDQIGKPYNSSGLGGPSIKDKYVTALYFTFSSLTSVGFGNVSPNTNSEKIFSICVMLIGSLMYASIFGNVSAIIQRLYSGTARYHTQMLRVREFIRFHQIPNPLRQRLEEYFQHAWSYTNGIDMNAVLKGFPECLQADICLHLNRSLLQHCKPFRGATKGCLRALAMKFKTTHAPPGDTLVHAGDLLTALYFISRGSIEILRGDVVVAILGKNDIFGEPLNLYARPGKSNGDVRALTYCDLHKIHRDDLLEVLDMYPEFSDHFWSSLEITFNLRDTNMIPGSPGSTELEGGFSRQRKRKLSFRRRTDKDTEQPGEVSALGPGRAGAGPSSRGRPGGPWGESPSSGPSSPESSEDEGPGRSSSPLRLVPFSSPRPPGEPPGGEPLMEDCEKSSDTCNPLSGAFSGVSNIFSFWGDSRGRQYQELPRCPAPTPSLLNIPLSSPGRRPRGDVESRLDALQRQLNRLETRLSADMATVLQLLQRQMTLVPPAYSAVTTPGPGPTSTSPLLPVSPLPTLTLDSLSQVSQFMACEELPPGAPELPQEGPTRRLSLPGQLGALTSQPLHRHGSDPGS
Chain of Cytochrome P450 2C19 (P33261 whole entry): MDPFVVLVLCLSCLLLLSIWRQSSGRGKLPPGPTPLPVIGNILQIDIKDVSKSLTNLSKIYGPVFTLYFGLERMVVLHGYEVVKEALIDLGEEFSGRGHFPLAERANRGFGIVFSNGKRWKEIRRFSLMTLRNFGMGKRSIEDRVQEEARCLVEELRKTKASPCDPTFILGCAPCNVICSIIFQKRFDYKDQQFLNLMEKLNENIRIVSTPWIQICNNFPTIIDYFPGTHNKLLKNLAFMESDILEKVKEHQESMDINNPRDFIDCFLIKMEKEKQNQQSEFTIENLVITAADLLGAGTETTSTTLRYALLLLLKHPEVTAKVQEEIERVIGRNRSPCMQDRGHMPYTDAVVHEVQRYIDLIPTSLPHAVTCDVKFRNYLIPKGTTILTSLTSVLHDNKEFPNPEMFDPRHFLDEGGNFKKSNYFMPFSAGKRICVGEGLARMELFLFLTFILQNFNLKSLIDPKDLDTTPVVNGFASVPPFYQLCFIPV

NC(=O)c1c(N)ncnc1N1CCC(c2nc(-c3ccc(F)c(C(F)(F)F)c3)cn2CCN2CCC2)CC1
IC50 (Cytochrome P450 3A4): > 20 µM
IC50 (Cytochrome P450 1A2): > 20 µM
AUC [1]: 43.4 ng·h/mL
IC50 [2]: 17.4 µM
fraction unbound [3]: 0.21
IC50 (Cytochrome P450 2B6): > 20 µM
IC50 (Cytochrome P450 2C8): > 20 µM
IC50 (Cytochrome P450 2C19): > 20 µM
IC50 (Cytochrome P450 2D6): > 20 µM
efflux ratio [4]: 7.9
solubility thermodynamic [5]: 2960 µg/mL (≈ 5.56 mM)
AUC [6]: 417 ng·h/mL
AUC [7]: 662 ng·h/mL
Cmax [8]: 57 ng/mL
Cmax [9]: 163 ng/mL
half-life [10]: 9.3 h
clearance [11]: 25 mL/min/kg
Vd [12]: 19.3 L/kg
bioavailability [13]: 63%
clearance [14]: 42.8 mL/min/kg
half-life [15]: 4 h
bioavailability [16]: 65%
AUC [17]: 2370 ng·h/mL
AUC [18]: 82 ng·h/mL
Cmax [19]: 67.8 ng/mL
inhibition in vivo at 200 mg/kg (MDA-MB-436): 98%
inhibition (INH) [20]: >95%
inhibition in vivo at 75 mg/kg [21]: 87%
MTD [22]: ≤ 200 mg/kg
